Measurements taken from patent US6455577B2, “Flavanone derivatives and composition for preventing or treating blood lipid level-related diseases comprising same” (Korea Research Institute of Bioscience and Biotechnology, priority 2000, dated 2002).
Each block holds one molecule with its values, some of them ahead of it.

Assays:
[1] = test system: New Zealand White rabbits; assay: Fatty streak in the main artery of cholesterol-fed rabbits; format: in vivo, rabbit
Protocol: (§1) 22 three-month-old New Zealand White rabbits(Yeonam Horticulture and Animal Husbandry College, Korea) each weighing about 2.0 to 2.3 kg were bred under a condition of temperature 20±2° C., relative humidity 55±10%, and photoperiod 12L/12D. The rabbits were divided two groups of 6 rabbits and a group of 10 rabbits, and the rats of three groups were fed with three different diets, i.e., RC4 diet(Oriental Yeast Co., Japan) containing 1% cholesterol(Control group); 1% cholesterol plus 1 mg/kg Lovastatin® (Merck, U.S.A.)(Comparative group); and 1% cholesterol plus 0.1% NG5006, respectively. RC4 diet comprises 7.6% moisture, 22.8% crude protein, 2.8% crude fat, 8.8% crude ash, 14.4% crude cellulose and 43.6% soluble nitrogen-free substances. The rabbits were bred for 8 weeks while being allowed free access to the diets and water.
The rabbits bred in Step 1 were sacrificed and their chest were incised. The main artery was cut out therefrom in a length of about 5 cm downward from the site 1 cm above the aortic valve and the fat surrounding the main artery was removed. The main artery was incised in the middle along the longitudinal axis and fixed in 10% neutral buffered formalin for 24 hours, and then, pinned to a dish. The moist artery was photographed and, then, staining of fatty streak was carried out in accordance with the method of Esper, E., et al. (J. Lab. Clin. Med., 121, 103-110(1993)) as follows.
A part of the incised main artery was washed three times by 2 min. with anhydrous propylene glycol and stained for 30 min. with a saturated solution of Oil Red O(ORO, Sigma Co.) dissolved in propylene glycol. Thereafter, the artery was washed twice by 3 min. with 85% propylene glycol to remove remaining staining solution and, then washed with physical saline. The artery was photographed and the photograph was traced. The area of stained legion(fatty streak legion) was determined with an image analyzer(LEICA, Q-600, Germany) and its proportion(%) to the total arterial area was calculated. The result is shown in Table V. The results were tested by student t-test by using Microsoft excel(version 7.0) program.

[2] = test system: ACAT; assay: ACAT activity in fed rabbits; format: in vivo, rabbit; conditions: rabbits fed 1% cholesterol plus 1 mg/kg Lovastatin or 0.1% NG5006, 8 weeks
Protocol: as §1
The effect of feeding NG5006 to rabbits on the activities of ACAT was determined using the rabbits bred in Step 1 of Example 14 in accordance with procedure disclosed in step 1 of Example 13.

[3] = test system: New Zealand White rabbits; assay: Abnormal fat-containing liver cells (fatty liver) in cholesterol-fed rabbits; format: in vivo, rabbit
Protocol: as §1
In order to evaluate the effects of feeding a high cholesterol diet with NG5006 on liver tissues, the liver specimens taken from the sacrificed rabbit in Step 2 of Example 14 were treated in accordance with the procedure disclosed in Fogt F. and Nanji A., Toxicology and Applied Pharmacology, 136, 87-93, 1996; and Keegan A., et al., Journal of Hepatology, 23, 591-600, 1995, and observed under a microscope to be classified into four grades, i.e., 1+(0-25%), 2+(26-50%), 3+(51-75), 4+(76-100%) based on the proportion of abnormal fat-containing cells around the central vein in the liver acinus. The results were tested by student t-test by using Microsoft excel(version 7.0) program.

[4] = biological target: T1, HMG-CoA reductase (Rattus norvegicus, UniProt P51639); assay: HMG-CoA reductase activity in liver microsomes of fed rats; format: in vivo; conditions: liver microsomes of rats fed 1% cholesterol plus 0.02% naringenin or 0.036% NG5006, six weeks
T1 construct: microsomes were separated from liver tissues to be used as an enzyme source; from tissue; host or cells: liver microsomes of fed rats
T1 sequence (P51639 1-887): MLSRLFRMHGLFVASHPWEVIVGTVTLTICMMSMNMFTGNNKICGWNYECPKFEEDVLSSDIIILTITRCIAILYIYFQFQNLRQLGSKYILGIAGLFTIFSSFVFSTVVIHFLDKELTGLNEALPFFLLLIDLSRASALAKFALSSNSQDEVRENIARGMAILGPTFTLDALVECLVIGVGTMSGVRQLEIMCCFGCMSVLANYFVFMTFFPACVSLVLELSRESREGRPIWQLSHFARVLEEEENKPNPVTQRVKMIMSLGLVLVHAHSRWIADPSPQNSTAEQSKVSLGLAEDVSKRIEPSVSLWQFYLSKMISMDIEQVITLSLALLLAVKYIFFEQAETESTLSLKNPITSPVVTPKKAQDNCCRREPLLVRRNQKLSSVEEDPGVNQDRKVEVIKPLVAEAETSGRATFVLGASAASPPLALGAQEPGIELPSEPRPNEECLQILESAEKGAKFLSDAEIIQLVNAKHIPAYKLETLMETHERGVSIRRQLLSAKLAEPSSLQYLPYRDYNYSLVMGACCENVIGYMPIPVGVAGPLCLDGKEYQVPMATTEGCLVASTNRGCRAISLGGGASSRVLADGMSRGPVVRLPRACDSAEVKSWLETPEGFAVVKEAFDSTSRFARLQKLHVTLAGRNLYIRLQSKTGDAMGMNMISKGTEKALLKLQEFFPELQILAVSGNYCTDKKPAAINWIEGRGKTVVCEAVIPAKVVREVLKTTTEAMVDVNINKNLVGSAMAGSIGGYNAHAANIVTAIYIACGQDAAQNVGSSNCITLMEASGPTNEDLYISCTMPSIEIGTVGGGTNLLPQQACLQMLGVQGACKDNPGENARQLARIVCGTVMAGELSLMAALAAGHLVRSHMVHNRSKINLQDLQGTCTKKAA
Protocol: (§2) To determine the effect of feeding NG5006 to rats on the activities of ACAT and HMG-CoA reductase, microsomes were separated from liver tissues to be used as an enzyme source.
(§3) 1 g each of the livers taken from each group of rats of Example 12 was homogenized in 5 ml of homogenization medium(0. 1 M KH2PO4, pH 7.4, 0.1 mM EDTA and 10 mM β-mercaptoethanol). The homogenate was centrifuged at 3,000×g for 10 min. at 4° C. and the supernatant thus obtained was centrifuged at 15,000×g for 15 min. at 4° C. to obtain a supernatant. The supernatant was put into an ultracentrifuge tube(Beckman) and centrifuged at 100,000×g for 1 hour at 4° C. to obtain microsomal pellets, which were then suspended in 3 ml of the homogenization medium and centrifuged at 100,000×g for 1 hour at 4° C. The pellets thus obtained were suspended in 1 ml of the homogenization medium. The protein concentration of the resulting suspension was determined by Lowry's method and then adjusted to 4 to 8 mg/ml. The resulting suspension was stored in a deep freezer(Biofreezer, Forma Scientific Inc.).
The activity of HMG-CoA reductase was determined by employing [^14C]HMG-CoA, in accordance with the method of Shapiro et al.(Biochemica et Biophysica Acta, 370, 369-377(1974)) as follows.
The enzyme in the supernatant containing the microsome obtained in (Step 1) was activated at 37° C. for 30 min. Added to a reaction tube were 20 μl of HMG-CoA reductase assay buffer(0.25M KH2PO4(pH 7.0), 8.75 mM EDTA, 25 mM DTT, 0.45 M KCl and 0.25 mg/ml BSA), 5 μl of 50 mM NADPH, 5 μl of [^14C]HMG-CoA(0.05μ Ci/tube, final conc. 120μM), and 10 μl of activated microsomal enzyme(0.03-0.04 mg), and the mixture was incubated at 37° C. for 30 min. […] A region having a Rf value ranging from 0.65 to 0.75 was removed by scraping with a disposable cover slips and assayed for radioactivity with 1450 Microbeta liquid scintillation counter(Wallac Co., Finland). Enzyme activities were calculated as picomoles mevalonic acid synthesized per min. per mg protein(pmoles/min/mg protein).

[5] = test system: Sprague-Dawley rats; assay: Plasma total cholesterol, HDL-cholesterol and triglyceride levels in rats fed high-cholesterol diet; format: in vivo, rat
Source text: (Step 1) Administration of NG5006 to rats
30 four-week-old white Sprague-Dawley rats (Korea Institute of Science and Technology, Korea), each weighing about 90 to 120 g, were evenly divided into three dietary groups by a randomized block design. The rats of the three groups were fed with three different high-cholesterol diets, i.e., AIN-76 laboratory animal diet(ICN Biochemicals, Cleveland, Ohio, U.S.A.) containing 1% cholesterol(Control group), 1% cholesterol plus 0.02% naringenin and 1% cholesterol plus 0.036% NG5006, respectively.
The rats were allowed to feed freely on the specified diet together with water for six weeks, the ingestion amount was recorded daily and the rats were weighed every 7 days, and then the record was analyzed. […] (Step 2) Determination of total cholesterol, HDL-cholesterol and triglyceride contents in blood
The effects of administering naringenin or NG5006 to rats on the plasma cholesterol and triglyceride contents were determined as follows.
Blood samples were taken from the rats of the three dietary groups and total cholesterol level was determined by using Sigma Diagnostic Kit Cat. No. C0534(Sigma Chemical Co., U.S.A.). HDL fractions were separated therefrom by using HDL-cholesterol reagent(Sigma Chemical Co., Cat. No. 352-1) and HDL-cholesterol level was determined by using Sigma Diagnostic Kit Cat. No. C9908(Sigma Chemical Co., U.S.A.). Triglyceride level was determined by using Sigma Diagnostic Kit Cat. No. 336-10(Sigma Chemical Co., U.S.A.).

[6] = test system: ACAT; assay: ACAT activity in liver microsomes of fed rats; format: in vivo, rat; conditions: liver microsomes of rats fed 1% cholesterol plus 0.02% naringenin or 0.036% NG5006, six weeks
Protocol: as §2, §3
6.67 μl of 1 mg/ml cholesterol solution in acetone was mixed with 6 μl of 10% Triton WR-1339(Sigma Co.) in acetone and then, acetone was removed from the mixture by evaporation under a nitrogen flow. Distilled water was added to the resulting mixture to adjust the concentration of cholesterol to […].
Added to 10 μl of the resulting aqueous cholesterol solution were 10 μl of 1 M KH2PO4(pH 7.4), 5 μl of 0.6 mM bovine serum albumin(BSA), 10 μl of microsome solution obtained in (Step 1) and 55 μl of distilled water(total 90 μl). The mixture was pre-incubated in a water bath at 37° C. for 30 min. […]
200 μl of the resulting supernatant was put in a scintillation bottle and 4 ml of scintillation fluid(Lumac Co.) was added thereto. The mixture was assayed for radioactivity with 1450 Microbeta liquid scintillation counter(Wallac Co., Finland). ACAT activity was calculated as picomoles of cholesteryl oleate synthesized per min. per mg protein(pmoles/min/mg protein).

[7] = 1% cholesterol plus 1 mg/kg Lovastatin or 0.1% NG5006
[8] = plasma, rats on 1% cholesterol diet plus 0.02% naringenin or 0.036% NG5006, six weeks
[9] = rats, 1% cholesterol diet, six weeks

Compound: CC[C@H](C)C(=O)O[C@H]1C[C@@H](C)C=C2C=C[C@H](C)[C@H](CC[C@@H]3C[C@@H](O)CC(=O)O3)[C@H]21 [Lovastatin ®, Lovastatin, reference compound]
layer on the arterial endothelium (FIGS. 1B, 1C) [1, 7]: no or very thin layers of macrophage-lipid complex
formation of fatty streak compared to the control group, in words ([1]; 1% cholesterol plus 1 mg/kg Lovastatin or 0.1% NG5006, 8 weeks): significantly inhibit the formation of fatty streak
Fatty Streak lesion (proportion of total arterial area) ([1]; 1% cholesterol plus 1 mg/kg Lovastatin or 0.1% NG5006, 8 weeks, Oil Red O staining): 18.0 ± 9.5%
ACAT activity [2]: 246.1 ± 52.5 pmole/min/mg protein
% Inhibition on ACAT Activity ([2]; versus control group): 4.2%
microscopic features of the livers (FIGS. 2B, 2C) [3, 7]: many cells containing excessive fat were observed around the central vein
Proportion of abnormal fat-containing liver cells (grade) ([3]; grades 1+(0-25%), 2+(26-50%), 3+(51-75), 4+(76-100%), 1% cholesterol plus 1 mg/kg Lovastatin or 0.1% NG5006, 8 weeks): 3.3 ± 1.1

HMG-CoA reductase activity [4]: 87.7 ± 5.9 pmole/min/mg protein
Compound: O=C1C[C@@H](c2ccc(O)cc2)Oc2cc(O)cc(O)c21 [Naringenin, naringenin, reference compound]
HDL-C (HDL-cholesterol) [5, 8]: 35.8 ± 1.5 mg/dL
HDL-C/Total-C [5, 8]: 18.8 ± 0.9%
TG (triglyceride) [5, 8]: 143.7 ± 9.4 mg/dL
Total-C (total cholesterol) [5, 8]: 190.6 ± 7.6 mg/dL
AI: Atherosclerosis Index (AI = (Total-C − HDL-C)/HDL-C) ([5]; rats on 1% cholesterol diet plus 0.02% naringenin or 0.036% NG5006, six weeks): 4.3 ± 0.3
total plasma cholesterol level lower than in the Control group [5, 9]: 16%
triglyceride level lower than in the control group [5, 9]: 6%
ACAT activity [6]: 153.3 ± 6.9 pmole/min/mg protein
